What was measured:
Plasmodium falciparum = test: Antimalarial activity against erythrocytic stages of Plasmodium falciparum 3D7 infected in human O positive RBC after 48 hrs by SYBR-green assay; format: functional, organism-based; details: 3D7, 48 h
Thymidylate kinase = target: T1, Thymidylate kinase (Plasmodium falciparum (isolate 3D7), UniProt Q8I4S1); test: Inhibition of recombinant Plasmodium falciparum TMPK using TMP as substrate by pyruvate kinase and lactate dehydrogenase enzyme coupled assay
T1 sequence (Q8I4S1 whole entry): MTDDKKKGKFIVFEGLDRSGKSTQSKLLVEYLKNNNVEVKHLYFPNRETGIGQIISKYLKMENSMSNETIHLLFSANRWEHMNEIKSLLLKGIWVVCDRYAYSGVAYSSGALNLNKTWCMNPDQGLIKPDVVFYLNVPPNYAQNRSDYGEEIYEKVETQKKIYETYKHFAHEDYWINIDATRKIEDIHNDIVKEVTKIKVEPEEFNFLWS

MRC5 = test: Cytotoxicity against human MRC5 cells; format: cell-based

Row | Structure (SMILES) | EC50 (Plasmodium falciparum) [µM] | Ki (Thymidylate kinase) [µM] | CC50 (MRC5) [µM]
1 | Cc1cn([C@H]2C[C@H](O)[C@@H](CNC(=S)Nc3ccc(Cl)c(C(F)(F)F)c3)O2)c(=O)[nH]c1=O | 42 | 25 | 
2 | COc1ccc(COc2ccc(NC(=O)NC[C@H]3O[C@@H](n4cc(C)c(=O)[nH]c4=O)C[C@@H]3O)cc2)cc1 | 3.8 |  | > 50
3 | Cc1cn([C@H]2C[C@H](O)[C@@H](CNC(=O)Nc3ccc(OCc4ccccc4Cl)cc3)O2)c(=O)[nH]c1=O | 0.41 |  | > 50
4 | Cc1cn([C@@H]2C[C@H](O)[C@@H](CNC(=O)Nc3ccc(OCc4cccc(Cl)c4)cc3)O2)c(=O)[nH]c1=O | 0.24 |  | > 50
5 | Cc1cn([C@@H]2C[C@H](O)[C@@H](CNC(=O)Nc3ccc(OCc4ccc(Cl)cc4)cc3)O2)c(=O)[nH]c1=O | 0.88 |  | > 50
6 | COc1ccc(COc2ccc(NC(=O)NC[C@H]3O[C@H](n4cc(C)c(=O)[nH]c4=O)C[C@@H]3O)cc2)cc1 | 0.21 |  | 
7 | Cc1cn([C@@H]2C[C@H](O)[C@@H](CNC(=O)Nc3ccc(OCc4ccc(C(C)(C)C)cc4)cc3)O2)c(=O)[nH]c1=O | 1.8 |  | > 50
8 | Cc1ccc2nc(-c3ccc(NC(=O)NC[C@H]4O[C@H](n5cc(C)c(=O)[nH]c5=O)C[C@@H]4O)cc3)sc2c1 | 4.6 |  | > 50
9 | Cc1cn([C@@H]2C[C@H](O)[C@@H](CNC(=O)Nc3ccc(N4CCN(C)CC4)cc3)O2)c(=O)[nH]c1=O | 29 |  | 
10 | Cc1cn([C@@H]2C[C@H](O)[C@@H](CNC(=O)Nc3ccc(OC4CCOCC4)cc3)O2)c(=O)[nH]c1=O | 1.3 |  | > 50
11 | Cc1cn([C@@H]2C[C@H](O)[C@@H](CNC(=S)Nc3ccc(OCc4ccccc4)cc3)O2)c(=O)[nH]c1=O | 9.5 |  | > 50
12 | Cc1cn([C@@H]2C[C@H](O)[C@@H](CNC(=O)Nc3ccccc3COc3ccccc3)O2)c(=O)[nH]c1=O | 7.2 |  | > 50
13 | Cc1cn([C@@H]2C[C@H](O)[C@@H](CNC(=O)Nc3cccc(COc4ccccc4)c3)O2)c(=O)[nH]c1=O | 1.8 |  | > 50
14 | Cc1cn([C@@H]2C[C@H](O)[C@@H](CNC(=O)Nc3ccccc3-c3ccccc3)O2)c(=O)[nH]c1=O | 96 |  | 
15 | COc1ccc(NC(=O)NC[C@H]2O[C@H](n3cc(C)c(=O)[nH]c3=O)C[C@@H]2O)cc1 | 2.5 |  | > 50
16 | Cc1cn([C@@H]2C[C@H](O)[C@@H](CNC(=O)Nc3ccc([N+](=O)[O-])cc3)O2)c(=O)[nH]c1=O | 31 | 11 | 
17 | Cc1ccc2nc(-c3ccc(NC(=O)NC[C@H]4O[C@@H](n5cc(C)c(=O)[nH]c5=O)C[C@@H]4O)cc3)sc2c1 | > 200 |  | 
18 | Cc1cn([C@H]2C[C@H](O)[C@@H](CNC(=O)Nc3ccc(N4CCN(C)CC4)cc3)O2)c(=O)[nH]c1=O | 26 |  | 
19 | Cc1cn([C@H]2C[C@H](O)[C@@H](CNC(=O)Nc3ccc(N4CCCCC4)cc3)O2)c(=O)[nH]c1=O | 4.8 |  | > 50
20 | Cc1cn([C@H]2C[C@H](O)[C@@H](CNC(=O)Nc3ccc(OC4CCOCC4)cc3)O2)c(=O)[nH]c1=O | 33 |  | 
21 | Cc1cn([C@H]2C[C@H](O)[C@@H](CNC(=O)Nc3ccc(OCc4ccccc4)cc3)O2)c(=O)[nH]c1=O | 4 |  | > 50
22 | Cc1cn([C@H]2C[C@H](O)[C@@H](CNC(=O)Nc3ccccc3COc3ccccc3)O2)c(=O)[nH]c1=O | 48 |  | 

Row | Structure (SMILES) | EC50 (Plasmodium falciparum) [µM] | Ki (Thymidylate kinase) [µM] | CC50 (MRC5) [µM]
23 | Cc1cn([C@H]2C[C@H](O)[C@@H](CNC(=O)Nc3cccc(COc4ccccc4)c3)O2)c(=O)[nH]c1=O | 148 |  | 
24 | Cc1cn([C@H]2C[C@H](O)[C@@H](CNC(=O)Nc3cccc4ccccc34)O2)c(=O)[nH]c1=O | > 100 |  | 
25 | Cc1cn([C@H]2C[C@H](O)[C@@H](CNC(=O)Nc3ccc(-c4ccccc4)cc3)O2)c(=O)[nH]c1=O | 3.3 |  | > 50
26 | Cc1cn([C@H]2C[C@H](O)[C@@H](CNC(=O)Nc3ccccc3-c3ccccc3)O2)c(=O)[nH]c1=O | 253 |  | 
27 | Cc1cn([C@@H]2C[C@H](O)[C@@H](CNC(=O)Nc3ccc(-c4ccc(C(F)(F)F)nc4)cc3)O2)c(=O)[nH]c1=O | 1.4 |  | > 50
28 | Cc1cn([C@@H]2C[C@H](O)[C@@H](CNC(=O)Nc3ccc(Cc4ccccc4)cc3)O2)c(=O)[nH]c1=O | 1.5 |  | > 50
29 | Cc1cn([C@@H]2C[C@H](O)[C@@H](CNS(=O)(=O)c3ccc([N+](=O)[O-])cc3)O2)c(=O)[nH]c1=O | > 100 | > 1000 | 
30 | Cc1cn([C@@H]2C[C@H](O)[C@@H](CNS(=O)(=O)c3ccc4ccccc4c3)O2)c(=O)[nH]c1=O | > 100 | > 1000 | 
31 | Cc1cn([C@@H]2C[C@H](O)[C@@H](CNC(=O)c3ccc4ccccc4c3)O2)c(=O)[nH]c1=O | > 100 | 541 | 
32 | Cc1cn([C@@H]2C[C@H](O)[C@@H](CNCc3ccc([N+](=O)[O-])cc3)O2)c(=O)[nH]c1=O | > 100 | > 1000 | 
33 | CCOC(=O)CCNC(=O)NC[C@H]1O[C@H](n2cc(C)c(=O)[nH]c2=O)C[C@@H]1O | > 100 | > 1000 | 
34 | Cc1cn([C@@H]2C[C@H](O)[C@@H](CNC(=O)NCc3ccccc3)O2)c(=O)[nH]c1=O | 64 | 198 | 
35 | Cc1cn([C@@H]2C[C@H](O)[C@@H](CNC(=O)Nc3cccnc3)O2)c(=O)[nH]c1=O | > 100 | > 1000 | 
36 | Cc1cn([C@@H]2C[C@H](O)[C@@H](CNC(=O)Nc3ccccc3)O2)c(=O)[nH]c1=O | 23 | 166 | 
37 | Cc1cn([C@@H]2C[C@H](O)[C@@H](CNC(=O)Nc3ccccc3Cl)O2)c(=O)[nH]c1=O | 36 | 205 | 
38 | Cc1cn([C@@H]2C[C@H](O)[C@@H](CNC(=O)Nc3ccc(Br)cc3)O2)c(=O)[nH]c1=O | 1.5 | > 1000 | > 50
39 | Cc1cn([C@@H]2C[C@H](O)[C@@H](CNC(=S)Nc3ccc(Br)cc3)O2)c(=O)[nH]c1=O | 20 | 65 | 
40 | COc1ccccc1NC(=O)NC[C@H]1O[C@H](n2cc(C)c(=O)[nH]c2=O)C[C@@H]1O | 44 | 138 | 
41 | COc1cccc(NC(=O)NC[C@H]2O[C@H](n3cc(C)c(=O)[nH]c3=O)C[C@@H]2O)c1 | 56 | 159 | 
42 | Cc1cn([C@H]2C[C@H](O)[C@@H](CNS(=O)(=O)c3ccc([N+](=O)[O-])cc3)O2)c(=O)[nH]c1=O | > 100 | > 1000 | 
43 | Cc1cn([C@H]2C[C@H](O)[C@@H](CNS(=O)(=O)c3ccc4ccccc4c3)O2)c(=O)[nH]c1=O | > 100 | > 1000 | 
44 | Cc1cn([C@H]2C[C@H](O)[C@@H](CNC(=O)c3ccc4ccccc4c3)O2)c(=O)[nH]c1=O | > 100 | > 1000 | 

Row | Structure (SMILES) | EC50 (Plasmodium falciparum) [µM] | Ki (Thymidylate kinase) [µM] | CC50 (MRC5) [µM]
45 | Cc1cn([C@H]2C[C@H](O)[C@@H](CNC(=O)c3ccc([N+](=O)[O-])cc3)O2)c(=O)[nH]c1=O | > 100 | 302 | 
46 | CCOC(=O)CCNC(=O)NC[C@H]1O[C@@H](n2cc(C)c(=O)[nH]c2=O)C[C@@H]1O | > 100 | 201 | 
47 | Cc1cn([C@H]2C[C@H](O)[C@@H](CNC(=O)NCc3ccccc3)O2)c(=O)[nH]c1=O | > 200 | 64 | 
48 | Cc1cn([C@H]2C[C@H](O)[C@@H](CNC(=O)Nc3cccnc3)O2)c(=O)[nH]c1=O | > 100 | 222 | 
49 | Cc1cn([C@H]2C[C@H](O)[C@@H](CNC(=O)Nc3ccccc3)O2)c(=O)[nH]c1=O | > 100 | 60 | 
50 | Cc1cn([C@H]2C[C@H](O)[C@@H](CNC(=O)Nc3ccccc3Cl)O2)c(=O)[nH]c1=O | > 100 | 52 | 
51 | Cc1cn([C@H]2C[C@H](O)[C@@H](CNC(=O)Nc3cccc(Cl)c3)O2)c(=O)[nH]c1=O | > 100 | 28 | 
52 | Cc1cn([C@H]2C[C@H](O)[C@@H](CNC(=O)Nc3ccc(Cl)cc3)O2)c(=O)[nH]c1=O | > 200 | 14 | 
53 | Cc1cn([C@H]2C[C@H](O)[C@@H](CNC(=S)Nc3ccc(Cl)cc3)O2)c(=O)[nH]c1=O | > 200 | 37 | 
54 | Cc1cn([C@H]2C[C@H](O)[C@@H](CNC(=O)Nc3ccc(Br)cc3)O2)c(=O)[nH]c1=O | 30 | 15 | 
55 | Cc1cn([C@H]2C[C@H](O)[C@@H](CNC(=S)Nc3ccc(Br)cc3)O2)c(=O)[nH]c1=O | 172 | 32 | 
56 | COc1ccccc1NC(=O)NC[C@H]1O[C@@H](n2cc(C)c(=O)[nH]c2=O)C[C@@H]1O | > 100 | 107 | 
57 | COc1cccc(NC(=O)NC[C@H]2O[C@@H](n3cc(C)c(=O)[nH]c3=O)C[C@@H]2O)c1 | > 100 | 69 | 
58 | COc1ccc(NC(=O)NC[C@H]2O[C@@H](n3cc(C)c(=O)[nH]c3=O)C[C@@H]2O)cc1 | 69 | 50 | 
59 | Cc1cn([C@H]2C[C@H](O)[C@@H](CNC(=O)Nc3ccc(C(C)(C)C)cc3)O2)c(=O)[nH]c1=O | 64 | 47 | 
60 | Cc1cn([C@H]2C[C@H](O)[C@@H](CNC(=O)Nc3ccc(Cl)c(C(F)(F)F)c3)O2)c(=O)[nH]c1=O | 114 | 27 | 
61 | Cc1cn([C@H]2C[C@H](O)[C@@H](CNC(=O)Nc3ccc([N+](=O)[O-])cc3)O2)c(=O)[nH]c1=O | 69 | 11 | 
62 | Cc1cn([C@@H]2C[C@H](O)[C@@H](CNC(=S)Nc3ccc(N4CCOCC4)cc3)O2)c(=O)[nH]c1=O | 35 |  | 
63 | Cc1cn([C@@H]2C[C@H](O)[C@@H](CNC(=O)c3ccc([N+](=O)[O-])cc3)O2)c(=O)[nH]c1=O | > 100 | 541 | 
64 | Cc1cn([C@H]2C[C@H](O)[C@@H](CNCc3ccc([N+](=O)[O-])cc3)O2)c(=O)[nH]c1=O | > 100 | 742 | 
65 | Cc1cn([C@@H]2C[C@H](O)[C@@H](CNC(=S)Nc3ccc(Cl)cc3)O2)c(=O)[nH]c1=O | 13 | 90 | > 50

Source: ChEMBL document CHEMBL2176953, “Synthesis and evaluation of α-thymidine analogues as novel antimalarials” (J Med Chem, 2012)
